From patent publication US7098233B2 (priority 2001, dated 2006)
Like-named read-outs stand apart in the source and are kept apart here.

Assays:
H1 histaminergic = H1 histaminergic (Homo sapiens, UniProt P35367); test: Receptor panel binding: H1 histaminergic
5-HT2c = target: T1, 5-HT2c (Homo sapiens, UniProt P28335); test: Binding affinity for serotonin subtype 5-HT2c
T1 sequence (P28335 33-458): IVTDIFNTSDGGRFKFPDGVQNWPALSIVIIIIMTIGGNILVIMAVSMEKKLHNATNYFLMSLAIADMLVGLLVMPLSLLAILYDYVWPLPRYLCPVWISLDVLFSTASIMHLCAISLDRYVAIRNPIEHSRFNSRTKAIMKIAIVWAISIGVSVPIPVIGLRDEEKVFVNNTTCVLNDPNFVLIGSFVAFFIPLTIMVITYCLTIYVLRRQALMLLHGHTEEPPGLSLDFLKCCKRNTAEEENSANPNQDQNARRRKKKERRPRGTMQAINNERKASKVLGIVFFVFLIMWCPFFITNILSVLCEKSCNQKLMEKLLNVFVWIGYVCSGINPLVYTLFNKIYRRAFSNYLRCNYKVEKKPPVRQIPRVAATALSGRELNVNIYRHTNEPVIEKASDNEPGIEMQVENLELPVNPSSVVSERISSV

NA transporter = NA transporter (Homo sapiens, UniProt P23975); test: Receptor panel binding: NA transporter
Sequence of NA transporter (P23975 whole entry): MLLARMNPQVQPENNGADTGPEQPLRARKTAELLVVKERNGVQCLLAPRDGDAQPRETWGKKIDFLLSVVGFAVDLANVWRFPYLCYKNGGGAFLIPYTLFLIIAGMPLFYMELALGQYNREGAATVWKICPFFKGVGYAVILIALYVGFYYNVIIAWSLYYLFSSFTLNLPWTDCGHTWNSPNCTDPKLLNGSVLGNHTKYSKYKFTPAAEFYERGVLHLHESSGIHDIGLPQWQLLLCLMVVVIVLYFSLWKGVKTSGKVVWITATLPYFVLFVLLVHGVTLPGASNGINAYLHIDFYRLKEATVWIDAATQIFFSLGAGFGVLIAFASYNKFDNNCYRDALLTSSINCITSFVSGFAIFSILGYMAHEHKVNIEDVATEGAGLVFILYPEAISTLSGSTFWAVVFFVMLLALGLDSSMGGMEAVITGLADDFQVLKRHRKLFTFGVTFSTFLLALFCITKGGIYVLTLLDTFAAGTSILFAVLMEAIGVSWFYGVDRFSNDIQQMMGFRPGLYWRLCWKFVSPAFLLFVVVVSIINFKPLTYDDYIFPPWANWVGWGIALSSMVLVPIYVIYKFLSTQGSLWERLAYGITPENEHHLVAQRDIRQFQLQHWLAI

D1 dopaminergic = D1 dopaminergic (Homo sapiens, UniProt P21728); test: Receptor panel binding: D1 dopaminergic
Sequence of D1 dopaminergic (P21728 whole entry): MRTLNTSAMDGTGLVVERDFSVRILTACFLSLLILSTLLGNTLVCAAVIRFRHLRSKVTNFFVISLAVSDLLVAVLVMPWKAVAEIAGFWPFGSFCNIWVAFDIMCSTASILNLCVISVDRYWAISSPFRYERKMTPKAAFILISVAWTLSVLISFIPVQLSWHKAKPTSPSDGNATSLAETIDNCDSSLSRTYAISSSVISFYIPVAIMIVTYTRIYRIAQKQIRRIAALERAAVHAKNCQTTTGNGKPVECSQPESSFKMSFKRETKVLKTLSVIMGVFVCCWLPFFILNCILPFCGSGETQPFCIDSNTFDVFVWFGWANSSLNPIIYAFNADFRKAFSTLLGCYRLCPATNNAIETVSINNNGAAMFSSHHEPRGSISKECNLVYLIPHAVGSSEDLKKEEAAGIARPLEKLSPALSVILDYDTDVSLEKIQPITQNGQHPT

D4,4 dopaminergic = target: T2, D4,4 dopaminergic (Homo sapiens, UniProt P21917); test: Receptor panel binding: D4,4 dopaminergic
T2 sequence (P21917 1-419): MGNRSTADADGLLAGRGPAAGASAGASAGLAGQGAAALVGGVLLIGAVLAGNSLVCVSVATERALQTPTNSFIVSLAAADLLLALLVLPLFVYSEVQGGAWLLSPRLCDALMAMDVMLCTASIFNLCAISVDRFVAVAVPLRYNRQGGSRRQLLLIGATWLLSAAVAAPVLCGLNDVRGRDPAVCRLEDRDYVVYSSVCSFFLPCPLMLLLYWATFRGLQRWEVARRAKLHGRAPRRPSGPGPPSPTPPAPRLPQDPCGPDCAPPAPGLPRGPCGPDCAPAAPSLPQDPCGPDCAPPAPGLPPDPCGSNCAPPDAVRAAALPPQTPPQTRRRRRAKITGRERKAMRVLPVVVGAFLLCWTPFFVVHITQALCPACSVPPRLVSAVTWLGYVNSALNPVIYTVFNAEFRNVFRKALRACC

[1] = target: T3, human 5-HT7 receptor stably transfected to CHO cells (Homo sapiens, UniProt P34969); test: 5-HT7 receptor binding, [3H]-LSD displacement
T3 construct: expressed in transfected cells; host or cells: CHO

5-HT1d = 5-HT1d (Homo sapiens, UniProt P28221); test: Binding affinity for serotonin subtype 5-HT1d
Sequence of 5-HT1d (P28221 whole entry, species assumed): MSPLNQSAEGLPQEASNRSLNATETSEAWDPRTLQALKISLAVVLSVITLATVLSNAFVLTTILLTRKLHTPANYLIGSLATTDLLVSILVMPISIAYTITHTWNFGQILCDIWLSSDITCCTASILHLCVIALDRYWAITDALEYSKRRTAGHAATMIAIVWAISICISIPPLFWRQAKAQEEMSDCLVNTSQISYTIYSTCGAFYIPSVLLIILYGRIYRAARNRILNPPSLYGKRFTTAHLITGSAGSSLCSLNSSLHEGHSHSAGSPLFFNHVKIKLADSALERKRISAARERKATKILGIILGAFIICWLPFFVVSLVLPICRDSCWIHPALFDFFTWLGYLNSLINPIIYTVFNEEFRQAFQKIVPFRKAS

D2 dopaminergic = D2 dopaminergic (Homo sapiens, UniProt P14416); test: Receptor panel binding: D2 dopaminergic
Sequence of D2 dopaminergic (P14416 whole entry): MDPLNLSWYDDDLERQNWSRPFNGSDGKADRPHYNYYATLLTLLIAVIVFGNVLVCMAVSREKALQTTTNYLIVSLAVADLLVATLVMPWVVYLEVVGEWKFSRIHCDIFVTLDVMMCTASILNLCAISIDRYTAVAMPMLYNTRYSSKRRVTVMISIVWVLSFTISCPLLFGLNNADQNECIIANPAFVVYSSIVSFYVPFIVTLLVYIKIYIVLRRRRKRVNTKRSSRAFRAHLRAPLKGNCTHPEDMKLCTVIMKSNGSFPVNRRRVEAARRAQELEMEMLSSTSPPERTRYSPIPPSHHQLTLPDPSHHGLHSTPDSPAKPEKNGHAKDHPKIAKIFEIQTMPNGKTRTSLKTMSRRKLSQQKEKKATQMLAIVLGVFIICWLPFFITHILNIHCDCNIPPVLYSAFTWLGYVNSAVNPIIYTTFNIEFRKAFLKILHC

D5 dopaminergic = D5 dopaminergic (Homo sapiens, UniProt P21918); test: Receptor panel binding: D5 dopaminergic
Sequence of D5 dopaminergic (P21918 whole entry): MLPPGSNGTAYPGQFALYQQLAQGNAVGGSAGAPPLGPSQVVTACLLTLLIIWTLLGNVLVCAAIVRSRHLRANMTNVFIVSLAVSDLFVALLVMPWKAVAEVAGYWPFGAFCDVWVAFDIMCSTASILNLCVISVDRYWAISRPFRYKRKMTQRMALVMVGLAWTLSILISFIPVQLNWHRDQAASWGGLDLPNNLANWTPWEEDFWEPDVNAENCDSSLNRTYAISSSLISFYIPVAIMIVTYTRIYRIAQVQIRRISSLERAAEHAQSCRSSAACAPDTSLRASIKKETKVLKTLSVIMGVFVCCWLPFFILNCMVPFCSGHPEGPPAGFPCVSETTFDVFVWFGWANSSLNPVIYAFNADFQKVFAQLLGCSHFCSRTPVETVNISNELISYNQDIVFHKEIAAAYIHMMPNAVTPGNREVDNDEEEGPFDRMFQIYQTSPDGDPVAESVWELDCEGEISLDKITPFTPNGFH

V1b of vasopressin = V1b of vasopressin (Homo sapiens, UniProt P47901); test: Receptor panel binding: vasopressin V1b
V1a of vasopressin = V1a of vasopressin (Homo sapiens, UniProt P37288); test: Receptor panel binding: vasopressin V1a
5-HT2b = 5-HT2b (Homo sapiens, UniProt P41595); test: Binding affinity for serotonin subtype 5-HT2b
5-HT4 = 5-HT4 (Homo sapiens, UniProt Q13639); test: Binding affinity for serotonin subtype 5-HT4
Sequence of 5-HT4 (Q13639 whole entry, species assumed): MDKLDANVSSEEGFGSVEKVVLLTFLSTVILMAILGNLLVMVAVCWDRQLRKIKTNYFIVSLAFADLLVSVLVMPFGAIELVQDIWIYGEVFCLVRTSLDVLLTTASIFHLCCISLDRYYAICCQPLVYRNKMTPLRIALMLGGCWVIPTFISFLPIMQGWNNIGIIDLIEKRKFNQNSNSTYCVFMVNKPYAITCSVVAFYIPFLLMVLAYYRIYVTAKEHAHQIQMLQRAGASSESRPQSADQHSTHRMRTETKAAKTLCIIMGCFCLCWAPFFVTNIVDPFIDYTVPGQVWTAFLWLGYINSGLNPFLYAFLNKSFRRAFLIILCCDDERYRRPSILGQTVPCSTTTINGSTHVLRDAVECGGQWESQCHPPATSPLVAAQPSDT

[2] = target: T4, alpha1b adrenergic receptor (Homo sapiens, UniProt P35368); test: Receptor panel binding: alpha1b adrenergic; conditions: for interaction capability for alpha1b receptors lower than for 5-HT6 receptor: alpha1b versus 5-HT6
T4 sequence (P35368 1-520): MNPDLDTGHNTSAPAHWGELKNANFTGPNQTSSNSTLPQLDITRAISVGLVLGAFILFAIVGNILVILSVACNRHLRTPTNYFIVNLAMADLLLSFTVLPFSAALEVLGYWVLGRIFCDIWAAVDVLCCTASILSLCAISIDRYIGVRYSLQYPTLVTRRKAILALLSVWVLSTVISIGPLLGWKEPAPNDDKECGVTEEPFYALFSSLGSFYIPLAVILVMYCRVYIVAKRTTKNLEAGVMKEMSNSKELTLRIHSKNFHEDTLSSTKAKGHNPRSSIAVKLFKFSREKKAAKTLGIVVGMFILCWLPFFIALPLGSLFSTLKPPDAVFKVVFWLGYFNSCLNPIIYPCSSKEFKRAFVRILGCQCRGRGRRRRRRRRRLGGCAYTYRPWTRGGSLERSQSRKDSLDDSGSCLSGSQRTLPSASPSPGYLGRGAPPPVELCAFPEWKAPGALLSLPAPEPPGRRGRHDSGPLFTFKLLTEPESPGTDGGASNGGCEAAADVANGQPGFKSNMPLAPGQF

5-HT transporter = 5-HT transporter (Homo sapiens, UniProt P31645); test: Binding affinity for 5-HT transporter
Sequence of 5-HT transporter (P31645 whole entry): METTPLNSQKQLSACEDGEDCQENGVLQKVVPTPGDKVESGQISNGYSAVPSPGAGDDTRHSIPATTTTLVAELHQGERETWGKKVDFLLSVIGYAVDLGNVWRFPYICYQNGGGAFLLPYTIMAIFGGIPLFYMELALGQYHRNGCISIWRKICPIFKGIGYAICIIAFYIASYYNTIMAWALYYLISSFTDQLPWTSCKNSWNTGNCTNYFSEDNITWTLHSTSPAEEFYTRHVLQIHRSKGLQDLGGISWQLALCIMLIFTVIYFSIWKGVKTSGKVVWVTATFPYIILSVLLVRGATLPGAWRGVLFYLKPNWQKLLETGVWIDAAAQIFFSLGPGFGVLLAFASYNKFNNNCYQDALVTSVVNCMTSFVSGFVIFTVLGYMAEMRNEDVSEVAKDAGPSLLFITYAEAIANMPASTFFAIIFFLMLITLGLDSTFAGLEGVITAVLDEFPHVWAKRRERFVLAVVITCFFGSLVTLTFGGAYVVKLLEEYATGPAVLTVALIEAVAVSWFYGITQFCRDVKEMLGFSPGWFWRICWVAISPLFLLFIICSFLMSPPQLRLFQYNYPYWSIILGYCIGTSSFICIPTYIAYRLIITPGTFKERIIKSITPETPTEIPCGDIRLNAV

[3] = target: T5, rat 5-HT6 stably transfected to HEK293 (Rattus norvegicus, UniProt P31388); test: 5-HT6 receptor binding, [3H]-LSD displacement; conditions: for selectivity of binding for 5-HT6 receptor (in words): over other serotonin sites and other neurotransmitter receptors
T5 construct: expressed in transfected cells; host or cells: HEK293
T5 sequence (P31388 whole entry): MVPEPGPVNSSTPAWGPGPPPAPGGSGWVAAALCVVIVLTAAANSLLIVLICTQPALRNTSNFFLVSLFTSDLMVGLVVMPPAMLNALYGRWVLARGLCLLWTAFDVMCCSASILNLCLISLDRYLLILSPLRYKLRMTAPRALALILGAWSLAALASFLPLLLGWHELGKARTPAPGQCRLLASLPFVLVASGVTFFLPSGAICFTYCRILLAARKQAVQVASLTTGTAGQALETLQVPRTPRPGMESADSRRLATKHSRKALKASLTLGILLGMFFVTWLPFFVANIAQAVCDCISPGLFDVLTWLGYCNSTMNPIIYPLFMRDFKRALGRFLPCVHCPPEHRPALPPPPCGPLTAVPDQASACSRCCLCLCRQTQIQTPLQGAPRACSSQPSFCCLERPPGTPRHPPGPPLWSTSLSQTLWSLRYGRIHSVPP

DA transporter = DA transporter (Homo sapiens, UniProt Q01959); test: Receptor panel binding: DA transporter
5-HT3 = target: T6, 5-HT3 (Homo sapiens, UniProt P46098); test: Binding affinity for serotonin subtype 5-HT3
T6 sequence (P46098 24-478): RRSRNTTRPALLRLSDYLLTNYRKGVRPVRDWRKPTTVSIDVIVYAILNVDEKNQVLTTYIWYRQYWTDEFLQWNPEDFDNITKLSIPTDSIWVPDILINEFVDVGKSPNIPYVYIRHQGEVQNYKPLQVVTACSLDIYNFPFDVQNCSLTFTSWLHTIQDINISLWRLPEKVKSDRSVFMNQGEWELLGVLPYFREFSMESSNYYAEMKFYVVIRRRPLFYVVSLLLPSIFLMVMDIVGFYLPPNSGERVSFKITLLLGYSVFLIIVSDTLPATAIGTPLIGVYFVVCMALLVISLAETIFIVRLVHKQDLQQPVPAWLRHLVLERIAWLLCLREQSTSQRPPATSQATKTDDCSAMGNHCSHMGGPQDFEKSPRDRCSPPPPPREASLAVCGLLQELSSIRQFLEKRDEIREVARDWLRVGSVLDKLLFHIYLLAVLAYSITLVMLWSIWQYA

beta1 adrenergic = beta1 adrenergic (Homo sapiens, UniProt P08588); test: Receptor panel binding: beta1 adrenergic
5-HT5a = 5-HT5a (Homo sapiens, UniProt P47898); test: Binding affinity for serotonin subtype 5-HT5a
Sequence of 5-HT5a (P47898 whole entry, species assumed): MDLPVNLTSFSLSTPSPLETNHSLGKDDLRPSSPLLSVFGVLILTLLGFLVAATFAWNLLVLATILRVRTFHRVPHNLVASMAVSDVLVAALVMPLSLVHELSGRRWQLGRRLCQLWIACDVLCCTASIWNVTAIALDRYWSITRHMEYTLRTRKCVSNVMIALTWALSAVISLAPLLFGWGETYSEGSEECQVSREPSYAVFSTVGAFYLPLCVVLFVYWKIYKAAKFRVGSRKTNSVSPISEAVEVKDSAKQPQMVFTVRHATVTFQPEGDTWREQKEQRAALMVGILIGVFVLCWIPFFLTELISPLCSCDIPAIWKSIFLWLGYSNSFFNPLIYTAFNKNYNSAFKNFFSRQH

alpha1a adrenergic = alpha1a adrenergic (Homo sapiens, UniProt P35348); test: Receptor panel binding: alpha1a adrenergic
5-HT1b = 5-HT1b (Homo sapiens, UniProt P28222); test: Binding affinity for serotonin subtype 5-HT1b
D3 dopaminergic = D3 dopaminergic (Homo sapiens, UniProt P35462); test: Receptor panel binding: D3 dopaminergic
Sequence of D3 dopaminergic (P35462 whole entry): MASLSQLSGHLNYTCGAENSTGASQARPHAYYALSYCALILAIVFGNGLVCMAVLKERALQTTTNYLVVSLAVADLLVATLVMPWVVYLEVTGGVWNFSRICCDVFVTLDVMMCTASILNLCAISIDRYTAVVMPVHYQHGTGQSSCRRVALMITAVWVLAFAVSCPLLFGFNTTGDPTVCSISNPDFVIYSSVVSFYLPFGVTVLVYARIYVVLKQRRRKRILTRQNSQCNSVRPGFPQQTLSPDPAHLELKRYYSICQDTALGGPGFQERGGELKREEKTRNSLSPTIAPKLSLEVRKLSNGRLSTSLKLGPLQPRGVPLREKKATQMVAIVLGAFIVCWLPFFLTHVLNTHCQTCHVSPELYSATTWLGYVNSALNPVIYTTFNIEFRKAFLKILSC

5-HT1a = target: T7, 5-HT1a (Homo sapiens, UniProt P08908); test: Binding affinity for serotonin subtype 5-HT1a
T7 sequence (P08908 1-422): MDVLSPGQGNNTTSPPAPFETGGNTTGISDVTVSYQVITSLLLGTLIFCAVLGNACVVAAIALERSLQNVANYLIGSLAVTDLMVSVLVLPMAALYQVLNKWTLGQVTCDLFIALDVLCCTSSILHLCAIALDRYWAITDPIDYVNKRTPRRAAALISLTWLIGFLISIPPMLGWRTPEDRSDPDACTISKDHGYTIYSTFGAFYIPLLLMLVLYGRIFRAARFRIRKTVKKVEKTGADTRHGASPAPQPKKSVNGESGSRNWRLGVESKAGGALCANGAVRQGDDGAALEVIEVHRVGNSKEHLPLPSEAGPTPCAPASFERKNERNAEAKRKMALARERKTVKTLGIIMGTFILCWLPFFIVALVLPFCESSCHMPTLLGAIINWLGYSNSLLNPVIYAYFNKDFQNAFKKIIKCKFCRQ

V2 of vasopressin = V2 of vasopressin (Homo sapiens, UniProt P30518); test: Receptor panel binding: vasopressin V2
Sequence of V2 of vasopressin (P30518 whole entry): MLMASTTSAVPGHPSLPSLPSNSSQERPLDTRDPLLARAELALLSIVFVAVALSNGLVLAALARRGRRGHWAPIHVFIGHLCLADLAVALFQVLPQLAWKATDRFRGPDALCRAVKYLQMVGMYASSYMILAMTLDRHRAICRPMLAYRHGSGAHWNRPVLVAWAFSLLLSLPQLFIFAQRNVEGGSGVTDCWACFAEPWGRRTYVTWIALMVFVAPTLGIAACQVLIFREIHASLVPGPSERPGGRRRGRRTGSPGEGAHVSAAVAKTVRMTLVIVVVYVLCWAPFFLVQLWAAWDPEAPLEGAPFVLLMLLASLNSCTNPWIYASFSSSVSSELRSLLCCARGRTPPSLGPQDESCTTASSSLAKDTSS

opiate (non-selective) = test: Receptor panel binding: opiate; conditions: read-out: affinity value, opiate (non-selective)
PCP = test: Receptor panel binding: PCP; conditions: read-out: affinity (Ki), PCP
5-HT2a = 5-HT2a (Homo sapiens, UniProt P28223); test: biochemical; assay type: binding
nicotinic receptors = test: Receptor panel binding: nicotinic receptors; conditions: read-out: affinity (Ki), nicotinic receptors
vasopressin V1 = test: Receptor panel binding: vasopressin V1; conditions: read-out: affinity (Ki), vasopressin V1
NMDA = test: Receptor panel binding: NMDA; conditions: read-out: affinity value, NMDA
[4] = target: muscarinic (non-selective); test: Receptor panel binding: muscarinic; conditions: read-out: affinity value, muscarinic (non-selective)

| SMILES | Ki (H1 histaminergic) [µM] | Ki (5-HT2c) [µM] | Ki (NA transporter) [µM] | Ki (D1 dopaminergic) [µM] | Ki (D4,4 dopaminergic) [µM] | IC50 [1] [µM] | Ki [1] [µM] | affinity for human recombinant 5-HT7 receptor (in words) [1] | Ki (5-HT1d) [µM] | Ki (D2 dopaminergic) [µM] | Ki (D5 dopaminergic) [µM] | melting point | Ki (5-HT2b) [µM] | Ki (5-HT4) [µM] | Ki (5-HT transporter) [µM] | 5-HT6 binding affinity compared with Serotonin (in words) [3] | IC50 [3] [µM] | Ki [3] [µM] | affinity for rat recombinant 5-HT6 receptor (in words) [3] | Ki (DA transporter) [µM] | other results |
| --- | --- | --- | --- | --- | --- | --- | --- | --- | --- | --- | --- | --- | --- | --- | --- | --- | --- | --- | --- | --- | --- |
| Cc1[nH]c2ccc(Cl)cc2c1CCN(C)C [ST 1936, 5-chloro-2-methyl-N,N-dimethyltryptamine] | ≥ 1 | > 1 | ≥ 1 | ≥ 1 | ≥ 1 | 0.527 | 0.168 | moderate | > 1 | ≥ 1 | ≥ 1 | 126 to 127 °C | > 1 | > 1 | > 1 | greater than that observed for Serotonin | 0.062 | 0.031 | high affinity | ≥ 1 | Ki (V1b of vasopressin): ≥ 1 µM; Ki (V1a of vasopressin): ≥ 1 µM; Ki [2]: 0.053 µM; interaction capability for alpha1b receptors lower than for 5-HT6 receptor [2]: about 2 fold; Ki (5-HT3): > 1 µM; Ki (beta1 adrenergic): ≥ 1 µM; Ki (5-HT5a): > 1 µM; Ki (alpha1a adrenergic): ≥ 1 µM; Ki (5-HT1b): > 1 µM; Ki (D3 dopaminergic): ≥ 1 µM; Ki (5-HT1a): > 1 µM; Ki (V2 of vasopressin): ≥ 1 µM |
| Cc1[nH]c2ccc(Br)cc2c1CCN(C)C [ST 1938, 5-bromo-2-methyl-N,N-dimethyltryptamine] | > 1 | > 1 | > 1 | > 1 | > 1 | 0.158 | 0.047 | highest affinity | > 1 | > 1 | > 1 | 135 to 136 °C | 0.154 | > 1 | > 1 | greater than that observed for Serotonin | 0.062 | 0.032 | high affinity | > 1 | Ki (opiate (non-selective)): > 1 µM; Ki (PCP): > 1 µM; Ki (5-HT2a): > 1 µM; Ki (nicotinic receptors): > 1 µM; Ki (vasopressin V1): > 1 µM; selectivity of binding for 5-HT6 receptor (in words) [3]: mixed activity for 5-HT6 and 5-HT7 serotonin receptors; Ki (NMDA): > 1 µM; Ki (5-HT3): > 1 µM; Ki (5-HT5a): > 1 µM; Ki (5-HT1b): > 1 µM; Ki [4]: > 1 µM; Ki (D3 dopaminergic): > 1 µM; Ki (5-HT1a): 0.947 µM; Ki (V2 of vasopressin): > 1 µM |
| CCc1[nH]c2ccc(Cl)cc2c1CCN(C)C [ST 2253, 5-Chloro-2-ethyl-N,N-dimethyltryptamine] | ≥ 1 | > 1 | ≥ 1 | ≥ 1 | ≥ 1 | > 1 | > 1 | negligible | > 1 | ≥ 1 | ≥ 1 | 188 °C (dec.) | 0.084 | > 1 | > 1 | greater than that observed for Serotonin | 0.052 | 0.026 | high affinity | ≥ 1 | Ki ([1]; read-out: Affinity (Ki) 5-HT7, Table 2, cell printed in μM): > 1 µM; Ki (5-HT2a): > 1 µM; Ki (V1b of vasopressin): ≥ 1 µM; Ki (V1a of vasopressin): ≥ 1 µM; Ki [2]: 0.069 µM; interaction capability for alpha1b receptors lower than for 5-HT6 receptor [2]: ~3 fold; selectivity of binding for 5-HT6 receptor (in words) [3]: selective affinity for 5-HT6 receptor; Ki (5-HT3): > 1 µM; Ki (beta1 adrenergic): ≥ 1 µM; Ki (5-HT5a): > 1 µM; Ki (alpha1a adrenergic): ≥ 1 µM; Ki (5-HT1b): > 1 µM; Ki (D3 dopaminergic): ≥ 1 µM; Ki (5-HT1a): ≥ 1 µM; Ki (V2 of vasopressin): ≥ 1 µM |
| NCCc1c[nH]c2ccc(O)cc12 [Serotonin, reference compound] |  |  |  |  |  |  |  |  |  |  |  |  |  |  |  |  | 0.171 | 0.087 |  |  |  |
